Measured values from the supplement of paper PMC7017272.
± gives the standard deviation of the averaged measurements.

Legend:
Settings in all cases: treatment time: 3 days
UT-SCC-24B = test: drug sensitivity score (DSS); higher = more sensitive; extreme values may be limits of the assay
How it was run: (§1)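 Viability of HPV-negative HNSCC cell lines was measured by CellTiter-Glo 2.0 luminescence. Cells were seeded at 500 cells/well in 384-well plates on plastic, on Matrigel- or Myogel-coated wells (500 µg/mL), or embedded in Matrigel or Myogel plus rat collagen I, then given compounds at five 10-fold concentrations for 3 days, with signals normalised to vehicle (0.1% DMSO) and cell-killing control wells. Fitting of percent-inhibition dose–response curves in the FIMM pipeline yielded IC50, maximal inhibition and drug sensitivity score.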

UT-SCC-73 [1] = test: as above
How it was run: as §1

UT-SCC-81 = test: as above
How it was run: as §1

UT-SCC-42A = test: as above
How it was run: as §1

UT-SCC-40 = test: as above
How it was run: as §1

UT-SCC-44 [2] = test: as above
How it was run: as §1

UT-SCC-28 = test: as above
How it was run: as §1

UT-SCC-42B = test: as above
How it was run: as §1

UT-SCC-8 = test: as above
How it was run: as §1

UT-SCC-14 = test: as above
How it was run: as §1

UT-SCC-106A [3] = test: as above
How it was run: as §1

UT-SCC-24A [4] = test: drug sensitivity score (DSS); higher = more sensitive
Protocol: (§2)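 HNSCC cell lines (500 cells/well, 384-well) were cultured on plastic, on top of (2D) or embedded (3D) in Matrigel or human leiomyoma matrix Myogel (500 ug/mL; Myogel 3D mixed with rat collagen I). Cells were treated for 3 days with 5 ten-fold concentrations of each drug, and viability was read by CellTiter-Glo. Suffixes _1/_2/_3 on drug names are replicates.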

UT-SCC-73 [5] = test: maximal % inhibition of viability relative to DMSO; higher = stronger effect
How it was run: as §1

UT-SCC-44 [6] = test: as above
How it was run: as §1

UT-SCC-106A [7] = test: as above
How it was run: as §1

UT-SCC-24A [8] = test: maximal % inhibition of viability relative to DMSO; higher = stronger effect
Protocol: as §2, with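 “CellTiter-Glo. Viability was normalised to DMSO (0% inhibition) and 100 uM benzethonium chloride (100% inhibition) controls and fitted with the FIMM DSRT pipeline to give IC50 (nM), maximal % inhibition and the drug sensitivity score (DSS).” for “CellTiter-Glo.”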

[9] = culture condition: embedded in Matrigel
[10] = culture condition: embedded in Myogel + collagen I
[11] = culture condition: on top of Matrigel
[12] = culture condition: on top of Myogel
[13] = culture condition: plastic 2D (no matrix)

C#Cc1cccc(Nc2ncnc3cc(OCCOC)c(OCCOC)cc23)c1 [Erlotinib]
drug sensitivity score (UT-SCC-24B; [9]): 11.3 ± 1 DSS
drug sensitivity score (UT-SCC-24B; [10]): 8.03 ± 3 DSS
drug sensitivity score (UT-SCC-24B; [11]): 10.4 ± 0.51 DSS
drug sensitivity score (UT-SCC-24B; [12]): 3.97 ± 0.21 DSS
drug sensitivity score (UT-SCC-24B; [13]): 15.2 ± 1.4 DSS
drug sensitivity score (UT-SCC-73 [1]; [9]): 0.3 ± 0.3 DSS
drug sensitivity score (UT-SCC-73 [1]; [10]): 1.17 ± 2 DSS
drug sensitivity score (UT-SCC-73 [1]; [11]): 0 DSS
drug sensitivity score (UT-SCC-73 [1]; [12]): 0.233 ± 0.4 DSS
drug sensitivity score (UT-SCC-73 [1]; [13]): 0 DSS
drug sensitivity score (UT-SCC-81; [9]): 10.4 ± 3.8 DSS
drug sensitivity score (UT-SCC-81; [10]): 0 DSS
drug sensitivity score (UT-SCC-81; [11]): 5.17 ± 2.1 DSS
drug sensitivity score (UT-SCC-81; [12]): 0 DSS
drug sensitivity score (UT-SCC-81; [13]): 0.2 ± 0.27 DSS
drug sensitivity score (UT-SCC-42A; [9]): 1.47 ± 2 DSS
drug sensitivity score (UT-SCC-42A; [10]): 0 DSS
drug sensitivity score (UT-SCC-42A; [11]): 2.73 ± 2.8 DSS
drug sensitivity score (UT-SCC-42A; [12]): 0.1 ± 0.1 DSS
drug sensitivity score (UT-SCC-42A; [13]): 1.73 ± 1.5 DSS
drug sensitivity score (UT-SCC-40; [9]): 0.333 ± 0.31 DSS
drug sensitivity score (UT-SCC-40; [10]): 1.97 ± 3.4 DSS
drug sensitivity score (UT-SCC-40; [11]): 0 DSS
drug sensitivity score (UT-SCC-40; [12]): 0 DSS
drug sensitivity score (UT-SCC-40; [13]): 0.0333 ± 0.058 DSS
drug sensitivity score (UT-SCC-44 [2]; [9]): 0 DSS
drug sensitivity score (UT-SCC-44 [2]; [10]): 0.133 ± 0.23 DSS
drug sensitivity score (UT-SCC-44 [2]; [11]): 0 DSS
drug sensitivity score (UT-SCC-44 [2]; [12]): 0.0667 ± 0.12 DSS
drug sensitivity score (UT-SCC-44 [2]; [13]): 0.0667 ± 0.12 DSS
drug sensitivity score (UT-SCC-28; [9]): 0 DSS
drug sensitivity score (UT-SCC-28; [10]): 1.27 ± 2.2 DSS
drug sensitivity score (UT-SCC-28; [11]): 0 DSS
drug sensitivity score (UT-SCC-28; [13]): 0 DSS
drug sensitivity score (UT-SCC-42B; [9]): 2.4 ± 1.4 DSS
drug sensitivity score (UT-SCC-42B; [11]): 1 ± 1.7 DSS
drug sensitivity score (UT-SCC-42B; [12]): 0 DSS
drug sensitivity score (UT-SCC-42B; [13]): 0 DSS
drug sensitivity score (UT-SCC-8; [9]): 7.57 ± 0.46 DSS
drug sensitivity score (UT-SCC-8; [10]): 0 DSS
drug sensitivity score (UT-SCC-8; [11]): 5.63 ± 0.65 DSS
drug sensitivity score (UT-SCC-8; [12]): 3.4 ± 2.5 DSS
drug sensitivity score (UT-SCC-8; [13]): 4.2 ± 1.1 DSS
drug sensitivity score (UT-SCC-14; [9]): 1.73 ± 0.57 DSS
drug sensitivity score (UT-SCC-14; [10]): 0.0333 ± 0.058 DSS
drug sensitivity score (UT-SCC-14; [11]): 0.4 ± 0.69 DSS
drug sensitivity score (UT-SCC-14; [12]): 0.733 ± 1.3 DSS
drug sensitivity score (UT-SCC-14; [13]): 0.9 ± 1.6 DSS
drug sensitivity score (UT-SCC-106A [3]; [9]): 1.43 ± 0.8 DSS
drug sensitivity score (UT-SCC-106A [3]; [10]): 0 DSS
drug sensitivity score (UT-SCC-106A [3]; [11]): 1.53 ± 2.1 DSS
drug sensitivity score (UT-SCC-106A [3]; [12]): 0 DSS
drug sensitivity score (UT-SCC-106A [3]; [13]): 1.97 ± 1.7 DSS
drug sensitivity score (UT-SCC-24A [4]; [9]): 8.87 ± 3.6 DSS
drug sensitivity score (UT-SCC-24A [4]; [10]): 1.63 ± 1 DSS
drug sensitivity score (UT-SCC-24A [4]; [11]): 5.7 ± 1.7 DSS
drug sensitivity score (UT-SCC-24A [4]; [12]): 0 DSS
drug sensitivity score (UT-SCC-24A [4]; [13]): 3.03 ± 0.93 DSS
maximal % inhibition of viability (UT-SCC-73 [5]; [9]): 11.2 ± 8.1%
maximal % inhibition of viability (UT-SCC-73 [5]; [10]): 13.6 ± 19%
maximal % inhibition of viability (UT-SCC-73 [5]; [11]): 13.9 ± 3.5%
maximal % inhibition of viability (UT-SCC-73 [5]; [12]): 9.4 ± 5.2%
maximal % inhibition of viability (UT-SCC-73 [5]; [13]): 5.97 ± 2.2%
maximal % inhibition of viability (UT-SCC-44 [6]; [9]): 6.07 ± 5.3%
maximal % inhibition of viability (UT-SCC-44 [6]; [10]): 10 ± 9.8%
maximal % inhibition of viability (UT-SCC-44 [6]; [11]): 14.1 ± 8.5%
maximal % inhibition of viability (UT-SCC-44 [6]; [12]): 20.4 ± 11%
maximal % inhibition of viability (UT-SCC-44 [6]; [13]): 15.9 ± 13%
maximal % inhibition of viability (UT-SCC-106A [7]; [9]): 25.1 ± 5.3%
maximal % inhibition of viability (UT-SCC-106A [7]; [10]): 10.4 ± 0.53%
maximal % inhibition of viability (UT-SCC-106A [7]; [11]): 23.6 ± 11%
maximal % inhibition of viability (UT-SCC-106A [7]; [12]): 2.57 ± 2.4%
maximal % inhibition of viability (UT-SCC-106A [7]; [13]): 19.6 ± 7.3%
maximal % inhibition of viability (UT-SCC-24A [8]; [9]): 65.2 ± 8%
maximal % inhibition of viability (UT-SCC-24A [8]; [10]): 27.5 ± 6.3%
maximal % inhibition of viability (UT-SCC-24A [8]; [11]): 50.9 ± 7.2%
maximal % inhibition of viability (UT-SCC-24A [8]; [12]): 7.53 ± 1.6%
maximal % inhibition of viability (UT-SCC-24A [8]; [13]): 30.6 ± 5%
